Data set [1] has as its system Pgp over-expressing KBV1 cells. Kind of data set: Efflux of 14C-Dp44mT, KBV1 cells. It counts as cell-based, Human. The method, then: (§1) For the uptake assay, each 35 mm culture dish containing 5×10^5 cells was incubated with ^14C-doxorubicin, ^3H-vinblastine or ^14C-Dp44mT (all at 1 μCi) for 30 min/37° C. Cells were then washed on ice three times with ice-cold PBS and collected for analysis. Drug uptake was calculated as the number of drug molecules/cell. […] For studies using lysosomotropic agents, cells were pre-incubated with NH4Cl (5 mM), CLQ (100 μM) or MA (100 μM) for 30 min/37° C. prior to ^14C-Dp44mT uptake. […] For efflux assays, the same labeling procedure was conducted as in the uptake assay. […] After this procedure, the overlying media was removed using a Pasteur pipette and then placed in a counting vial. The cells were removed from the plate in 1 mL of PBS and then dispensed into a separate counting vial. The radiolabeled-drug efflux was calculated as a percentage of the total drug uptake by the cells found at zero time.

Data set [2] concerns non-Pgp expressing KB31 cells. Briefly: MTT proliferation assay, KB31 cells. It counts as cell-based, Human. As to conditions: Val 1 μM, Ela 0.1 μM, 72 h. (Formazan colour is commonly taken as a measure of viable cells.)
The test system of data set [3] is non-Pgp expressing 2008 cells. Kind of data set: MTT proliferation assay, 2008 cells. It counts as cell-based. As to conditions: 2008 cells, Val 1 μM, Ela 0.1 μM. On the procedure:
The 2008 ovarian carcinoma cell line and the PAC-resistant 2008/P200A cell line (grown in 200 ng/mL of PAC) were kindly provided by Dr. John Allen (Centenary Institute, Sydney, Australia). Cells were grown in Dulbecco's modified Eagle's medium (DMEM; Life Technologies) with 10% (v/v) fetal calf serum (Sigma-Aldrich, St. Louis, Mo.) and supplemented with the following additions from Life Technologies: 1% (v/v) sodium pyruvate, 1% (v/v) non-essential amino acids, 100 U/mL penicillin, 100 μg/mL streptomycin, 2 mM L-glutamine and 0.28 μg/mL fungizone. The cells were then incubated at 37° C. in a humidified atmosphere of 5% CO2 and 95% air.
The effect of anti-cancer agents on cellular proliferation was examined using the MTT [3-(4,5-dimethylthiazol-2-yl)-2,5-diphenyl tetrazolium] method. In this assay, 3×10^3 cells/well were seeded in 96-well plates in 100 μL of media. The next day, serially diluted drugs of interest were added. […] The cells were incubated at 37° C. in a humidified atmosphere containing 5% CO2 and 95% air for 72 h. After this incubation, 10 μL of MIT (5 mg/mL) was added to each well and the incubation continued at 37° C. for 2 h. After solubilization of the cells with 100 μL of 10% SDS-50% isobutanol in 10 mM HCl, the plates were read at 570 nm using a scanning multi-well spectrophotometer (Victor™ Multilabel Counter plate reader; Perkin Elmer, Australia). Results were analyzed to calculate the concentration of chelator or complex necessary to reduce the absorbance to 50% (IC50) of the control.

Data set [4] concerns 2008/P200A cells. Briefly: Uptake of 14C-Dp44mT, 2008/P200A cells. The data set is classed as cell-based. To be noted: 2008/P200 cells, NH4Cl, MA or CLQ pre-incubation. On the procedure:
as §1

For data set [5], the system named is KBV1 cells. Kind of data set: Lysosomal integrity, acridine orange flow cytometry, KBV1 cells. The data set is classed as cell-based, Human. The method, then: Lysotracker® red (Life Technologies) and acridine orange (Sigma-Aldrich) are dyes showing high specificity for lysosomes and were used to determine lysosomal membrane permeability (LMP). The Lysotracker® red was visually assessed by fluorescence microscopy utilizing a Zeiss Axio Observer.Z1 Fluorescence Microscope equipped with an AxioCam camera (Zeiss, Oberkochen, Germany) and acridine orange was quantified by flow cytometry (see below).
Briefly, cells were incubated with Lysotracker® red (50 nM) for 15 min/37° C. or acridine orange (20 nM) for 15 min/37° C., washed on ice 3 times with ice-cold PBS and then incubated with Cu[Dp44mT] (25 μM) for 30 min/37° C. or Dp44mT alone (25 μM) for 30 min or 24 h/37° C.
The dyes, Rh123 and acridine orange were detected with the FACS Canto flow cytometer (BD Biosciences) and 10,000 events were acquired for every sample. Data analysis was performed using FlowJo software, version 7.5.5 (Tree Star Inc., Ashland, OR).
Background: A flow cytometer gives signals particle by particle.

Data set [6] in a line: Redox studies: oxidation of H2DCF, cell-free. To be noted: acetate buffer pH 5, cysteine, H2O2, over 12 min. The method, then:
These studies were conducted in an acetate buffer (150 mM; pH 5) containing cysteine (100 μM) to mimic lysosomal conditions. In these experiments, hydrogen peroxide (100 μM) was added to initiate ROS generation.

In the case of `CN(C)C(=S)NN=C(c1ccccn1)c1ccccn1` [Dp44mT, di-2-pyridylketone 4,4-dimethyl-3-thiosemicarbazone], the “efflux in KBV1 cells in comparison to KB31 cells” value in data set [1] (1-10 min incubation) is “significantly (p<0.001) higher efflux”. Moreover, the “effect of Val and Ela on efflux” value in data set [1] (KBV1 cells, Val 1 μM or Ela 0.1 μM) is recorded as “significantly (p<0.01-0.001) suppressed efflux”. Also, the “change of cytotoxicity in presence of Pgp inhibitors Val or Ela” value in data set [2] is on record as “did not significantly alter their cytotoxicity”; in data set [3], “no significant (p>0.05) change”. Also, the “accumulation after pre-treatment with lysosomotropic agents” value in data set [4] is “significantly (p<0.001) decreased”. For the same molecule, the “lysosomal integrity (acridine orange)” value in data set [5] (30 min incubation) is “did not compromise lysosomal integrity”; in data set [5] (KBV1 cells, 25 μM, 24 h), “decreased lysosomal integrity”. In data set [5] (KBV1 cells, 24 h, with Pgp inhibitor Val), the “lysosomal damage in presence of Val” value is recorded as “significantly (p<0.01) reduced lysosomal damage”. The “redox activity (H2DCF oxidation)” value in data set [6] is “no activity”.

These data come from US20150306081A1, “Chemotherapy for Drug-Resistant Cancer Cells” (THE UNIVERSITY OF SYDNEY, priority 2012, published 2015).
